The results in this text go back to ChEMBL document CHEMBL1201862, “PubChem BioAssay data set” (2004).

What all share (assay): DTP human tumour cell line panel, 48 h
In test [1] the test system is MOLT-4.
The test system of test [2] is CCRF-CEM.
Test [3] deals with COLO 205.
Test [4] concerns MDA-MB-435.
Test [5] concerns TK-10.
Test [6] has as its system SNB-75.
In test [7] the test system is HL-60.
The subject of test [8] is NCI-H23.
The subject of test [9] is SF-268.
Test [10] relates to CAKI-1.
Test [11] has as its system SF-295.
Test [12] concerns LOX IMVI.
In test [13] the test system is SNB-19.
Test [14] concerns DU-145.
Test [15] concerns OVCAR-4.
The subject of test [16] is HCT-15.
Test [17] has as its system SK-MEL-2.
Test [18] concerns UACC-257.
The subject of test [19] is NCI/ADR-RES.
Test [20] relates to SR.

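Dose response: 5 concentrations. Exposure: 48 h. Format: 96-well plates. Endpoint: linear interpolation; highest concentration if not reached. GI50 marks 50% less growth.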 Activity calls are given as the source filed them. No stated cut-off is given here; in the data, active = GI50 up to about 1.1 µM and inactive = higher.

Take `COc1cc(/C=C2\N=C(c3ccccc3)N(c3nc4c(OC)ccc(OC)c4s3)C2=O)cc(OC)c1OC`: the GI50 in test [1] is 35.2 µM (inactive); in test [2], 31.2 µM (inactive); in test [3], 30.4 µM (inactive); in test [4], 31.3 µM (inactive); in [5], > 100 µM (inactive); in [6], > 100 µM (inactive). Further, the GI50 was 30.4 µM (inactive) in [7]; > 100 µM (inactive) in [8]; > 100 µM (inactive) in test [9]; > 100 µM (inactive) in test [10]; > 100 µM (inactive) in test [11]; 51.8 µM (inactive) in test [12]. The GI50 in [13] is > 100 µM (inactive); in [14], > 100 µM (inactive); in test [15], > 100 µM (inactive); in test [16], 95.7 µM; in [17], > 100 µM (inactive); in test [18] it was 55.6 µM (inactive). In addition, the GI50 in [19] was > 100 µM (inactive).

`c1ccc(C[N+]23CN4CN(CN(C4)C2)C3)cc1`: the GI50 is 22.7 µM (inactive) in test [1]; 11.7 µM (inactive) in [2]; 18.5 µM (inactive) in [3]; 22 µM (inactive) in test [4]; 84.5 µM (inactive) in test [5]; 45.6 µM (inactive) in test [6]. The GI50 was 24.1 µM (inactive) in test [7]; 19.1 µM (inactive) in test [8]; 29.3 µM (inactive) in test [9]; 45.9 µM (inactive) in test [10]; > 100 µM (inactive) in test [11]; 22 µM (inactive) in [12]. Besides, the GI50 in test [13] is 26.4 µM (inactive); in test [14], 27.5 µM (inactive); in [15] it was 36.5 µM (inactive); in [16], 31.4 µM; in test [17] it was 17 µM (inactive); in [18], 37.4 µM (inactive). For the same compound, in test [19], the GI50 was 78.5 µM (inactive).

`COc1c(/C=C/C(C)(C)O)cc(C2CC(=O)c3c(O)cc(O)cc3O2)cc1CC=C(C)C` (stereo not drawn): the GI50 was 11.7 µM (inactive) in [1]; 13.2 µM (inactive) in [2]; 9.35 µM (inactive) in test [3]; 8.02 µM (inactive) in test [4]; 8.67 µM (inactive) in [5]; 9.86 µM (inactive) in [6]. The GI50 was 12.8 µM (inactive) in test [7]; 9.02 µM (inactive) in test [8]; 9.04 µM (inactive) in test [9]; 16 µM (inactive) in [10]; 7.26 µM (inactive) in [11]; 4.44 µM (inactive) in [12]. In addition, the GI50 in test [13] is 10.6 µM (inactive); in test [14], 9.06 µM (inactive); in test [15] it was 10.4 µM (inactive); in [16], 8.2 µM; in test [17], 8.61 µM (inactive); in test [18], 8.3 µM (inactive). Moreover, the GI50 in [19] was 12.1 µM (inactive).

In the case of `N#Cc1c(N)n(-c2cccc(C(=O)O)c2)c(=O)c2cc([N+](=O)[O-])ccc12`, the GI50 in [3], in test [4], in test [5], in test [6], in [7] and in test [8] was > 100 µM (inactive) throughout. Further, the GI50 in test [9], in [10], in [12], in test [13], in test [14] and in [15] was > 100 µM (inactive) throughout. Also, the 50% growth inhibitory concentration (GI50) in test [16] was over 100 µM; in test [17], > 100 µM (inactive); in test [18], > 100 µM (inactive); in test [19], > 100 µM (inactive).

Turning to `CC(=O)OC/C=C(/CCl)CCC(Br)C(C)(C)Br.CC(=O)OC/C=C(\CCl)CCC(Br)C(C)(C)Br` (stereo not drawn), the GI50 in test [1], in test [2], in test [3], in [4], in test [5] and in test [6] was > 10 µM (inactive) throughout. The GI50 in test [7], in [8], in test [9], in test [10], in test [11] and in test [12] was > 10 µM (inactive) throughout. In addition, the GI50 in test [13] is > 10 µM (inactive); in test [14], > 10 µM (inactive); in test [15], > 10 µM (inactive); in [16], over 10 µM; in test [17], > 10 µM (inactive); in test [18] it was > 10 µM (inactive). For the same compound, the GI50 in test [19] was > 10 µM (inactive).

For the compound `N#Cc1ccc(N2CCOCC2)cc1`, the GI50 in test [1] is > 100 µM (inactive); in [2] it was 0.975 µM (active); in test [3] it was > 100 µM (inactive); in [4], > 100 µM (inactive); in test [5] it was > 100 µM (inactive); in test [6] it was > 100 µM (inactive). Moreover, the GI50 was > 100 µM (inactive) in test [7]; 80.5 µM (inactive) in test [8]; > 100 µM (inactive) in test [9]; > 100 µM (inactive) in [10]; > 100 µM (inactive) in test [11]; 23 µM (inactive) in [12]. The GI50 is > 100 µM (inactive) in test [13]; > 100 µM (inactive) in [14]; > 100 µM (inactive) in test [15]; over 100 µM in [16]; > 100 µM (inactive) in [17]; > 100 µM (inactive) in [18]. For the same compound, in test [19], the GI50 was > 100 µM (inactive).

`CC(C)(C)OC(=O)N(O)CCCn1cnc2c(NC3CC3)ncnc21`: the GI50 in test [1], in [2], in test [3], in test [20], in [4] and in [5] was > 100 µM (inactive) in each case. Moreover, the GI50 in test [6] was 35.1 µM (inactive); in test [8] it was > 100 µM (inactive); in test [9], > 100 µM (inactive); in [10] it was > 100 µM (inactive); in test [11], > 100 µM (inactive); in [12], > 100 µM (inactive). For the same compound, the GI50 in test [13] was > 100 µM (inactive); in test [14], > 100 µM (inactive); in test [15], > 100 µM (inactive); in [16] it was over 100 µM; in test [17] it was > 100 µM (inactive); in test [18], > 100 µM (inactive). Moreover, the GI50 in test [19] was > 100 µM (inactive).

As for `O=C1c2ccccc2C(C2c3ccccc3C(=O)c3cc(Br)ccc32)c2ccc(Br)cc21` (stereo not drawn), the GI50 is 61 µM (inactive) in test [1]; > 100 µM (inactive) in [3]; > 100 µM (inactive) in test [4]; > 100 µM (inactive) in test [5]; > 100 µM (inactive) in test [6]; < 0.01 µM (active) in [7]. Moreover, the GI50 in test [8], in [9], in [10], in test [11], in test [12] and in test [13] was > 100 µM (inactive) in each case. The GI50 in [14] was > 100 µM (inactive); in test [15], > 100 µM (inactive); in [16] it was over 100 µM; in test [18], > 100 µM (inactive); in test [19], > 100 µM (inactive).

As for `O=S1(=O)c2ccccc2-c2nccc3ccnc1c23`, the GI50 in [1] was 2.72 µM (inactive); in test [2], 4.02 µM (inactive); in test [3], 3.99 µM (inactive); in test [4], 11.9 µM (inactive); in test [5], 20.8 µM (inactive); in test [6] it was 27.7 µM (inactive). Further, the GI50 in test [7] is 4.76 µM (inactive); in [8], 14.6 µM (inactive); in test [9], 23.5 µM (inactive); in test [10], 15.3 µM (inactive); in test [11], 25 µM (inactive); in test [12] it was 12.6 µM (inactive). Moreover, the GI50 is 23.2 µM (inactive) in [13]; 11.3 µM (inactive) in test [14]; 37.9 µM (inactive) in [15]; 7.87 µM in [16]; 28.7 µM (inactive) in test [17]; 28.5 µM (inactive) in test [18]. Moreover, in test [19], the GI50 is 20.8 µM (inactive).

Turning to `COc1ccc(/N=c2/[nH]c(N)c(C(=O)c3ccc(OC)cc3)s2)cc1`, the 50% growth inhibitory concentration (GI50) is 0.0851 µM (active) in test [1]; 0.183 µM (active) in [2]; 0.279 µM (active) in test [3]; 0.0306 µM (active) in test [4]; 15.1 µM (inactive) in test [5]; 0.31 µM (active) in test [6]. Also, the GI50 in test [7] is 0.119 µM (active); in test [8], 0.508 µM (active); in test [9] it was 12.9 µM (inactive); in test [10] it was 0.313 µM (active); in [11] it was 0.159 µM (active); in test [12], 0.596 µM (active). For the same compound, the GI50 in test [13] was 0.474 µM (active); in test [14] it was 0.378 µM (active); in test [15], 0.755 µM (active); in test [16] it was 0.412 µM; in [17], 0.288 µM (active); in [18], > 100 µM (inactive). In addition, the GI50 in test [19] is 0.211 µM (active).

With `O=c1[nH]c(=O)n([C@@H]2O[C@H](CO)[C@@H](O)[C@@H]2F)cc1I` [FIALURIDINE], the GI50 in [1] is 56 µM (inactive); in test [2] it was 4.8 µM (inactive); in test [3], > 100 µM (inactive); in test [4], > 100 µM (inactive); in [5], > 100 µM (inactive); in test [6], > 100 µM (inactive). Besides, the GI50 is > 100 µM (inactive) in test [7]; > 100 µM (inactive) in test [8]; > 100 µM (inactive) in test [9]; > 100 µM (inactive) in [10]; > 100 µM (inactive) in test [11]; 46.3 µM (inactive) in test [12]. Besides, the GI50 in [13] is > 100 µM (inactive); in test [14], > 100 µM (inactive); in test [15], > 100 µM (inactive); in test [16], over 100 µM; in [18], > 100 µM (inactive); in test [19], > 100 µM (inactive).

As usually defined, the GI50 is the concentration at which growth is held to half of that of the control.
